Earlier results in patent US20070243563A1, “Aflatoxin-albumin adduct measurement and the uses thereof” (priority 2000, published 2007).

What was measured:
[1] = test system: rats; settings: rat, in vivo
[2] = test system: humans

**Q.** Which TD50 [1] does the source give for Aflatoxin B1 [AFB1] here?
**A.** 9.3×10^−4 mg/kg per day

**Q.** What about the “carcinogenic potency relative to benzo(a)pyrene” value [1] of the same substance?
**A.** 1000 times

**Q.** What about the IARC carcinogen classification [2] of the same substance?
**A.** Group 1 carcinogens
